Results reported in US20220064141A1, “BENZOPYRIDONE HETEROCYCLIC COMPOUND AND USE THEREOF” (BrightGene Bio-Medical Technology Co., Ltd., priority 2019, published 2022).

Each compound was assayed on NCI-H358 human non-small cell lung cancer cell with KRAS G12C mutation (assay: Cell Titer-Glo cell viability, NCI-H358 cells (72 h)). Settings: Homo sapiens, NCI-H358, 72 h, class symbols.
Format: cell-based
Description: Effect Example 1: Pharmacodynamic Assay 1 (Determination of the efficacy of the compounds of the present disclosure on NCI-H358 human non-small cell lung cancer cell with KRAS G12C mutation)
The following method was used to determine the effect of the compounds of the present disclosure on tumor cell proliferation.
For the KRAS G12C subtype, NCI-H358 non-small cell lung cancer cells with KRAS G12C mutation were used to determine the efficacy of the compounds in inhibiting cancer cell viability. NCI-H358 cells were cultured in a DMEM medium containing 10% fetal bovine serum, 100 U penicillin and […] streptomycin. The cells were cultured in an incubator with 5% CO2 at 37° C. Cancer cell viability was evaluated by determining the content of ATP with Cell Titer-Glo® kit (Luminescent Cell Viability Assay kit, please refer to the manufacturer's instructions for use) and evaluating the inhibition of cell growth.
The experimental method was proceeded in accordance with the steps in the instructions for the kit, and was described briefly as follows. The test compounds were first dissolved in DMSO to prepare stock solutions, and then the stock solutions were subjected to gradient dilution with the culture media of the corresponding cells, thereby preparing test samples. The final concentrations of the compounds were in the range of 30 μM to 0.01 nM. Tumor cells in logarithmic growth phase were seeded into a 96-well cell culture plate at an appropriate density. After the cell culture plate was left overnight in an incubator with 5% CO2 at 37° C., the test compound samples were added thereto and then the cells were further cultured for 72 hours. After the incubation was complete, an appropriate volume of Cell Titer-Glo® reagent was added into each well, and the cells were incubated at 37° C. for 1 to 4 hours. Then, the […] was read on a microplate reader.
`C=CC(=O)N1CCN(c2c(C#N)c(=O)n(-c3ccccc3C(C)C)c3cc(-c4cc(Cl)cc(F)c4N)c(Cl)cc23)[C@@H](C)C1` (atropisomer, axis not shown) [Compound I-78] showed an IC50 of under 100 nM. In the case of `C=CC(=O)N1CCN(c2c(C#N)c(=O)n(-c3ccccc3C(C)C)c3cc(-c4c(N)cccc4F)c(Cl)cc23)[C@@H](C)C1` [Compound I-9], the IC50 is reported as 100 to 1000 nM. Work on `C=CC(=O)N1CCN(c2c(C#N)c(=O)n(-c3ccccc3C(C)C)c3cc(-c4ccccc4F)c(Cl)cc23)[C@@H](C)C1` [Compound I-10] yielded an IC50 of over 1000 nM. `C=CC(=O)N1CCN(c2c(C#N)c(=O)n(-c3ccccc3C(C)C)c3cc(-c4ccc(Cl)cc4)c(Cl)cc23)[C@@H](C)C1` [Compound I-11] was tested, and the IC50 was over 1000 nM. `C=CC(=O)N1CCN(c2c(C#N)c(=O)n(-c3ccccc3C(C)C)c3cc(-c4ccccc4C(N)=O)c(Cl)cc23)[C@@H](C)C1` [Compound I-12] gave an IC50 of 100 to 1000 nM. `C=CC(=O)N1CCN(c2c(C#N)c(=O)n(-c3ccccc3C(C)C)c3cc(-c4cc(N)ccc4F)c(Cl)cc23)[C@@H](C)C1` [Compound I-13] was tested, and the IC50 was 100 to 1000 nM. For `C=CC(=O)N1CCN(c2c(C#N)c(=O)n(-c3ccccc3C(C)C)c3cc(-c4cccc(F)c4)c(Cl)cc23)[C@@H](C)C1` [Compound I-14], the IC50 was 100 to 1000 nM. `C=CC(=O)N1CCN(c2c(C#N)c(=O)n(-c3ccccc3C(C)C)c3cc(-c4ccc(F)cc4)c(Cl)cc23)[C@@H](C)C1` [Compound I-15] was tested, and the IC50 was 100 to 1000 nM. `C=CC(=O)N1CCN(c2c(C#N)c(=O)n(-c3ccccc3C(C)C)c3cc(-c4cc(C)c(=O)n(C)c4)c(Cl)cc23)[C@@H](C)C1` [Compound I-16] showed an IC50 of 100 to 1000 nM. With `C=CC(=O)N1CCN(c2c(C#N)c(=O)n(-c3ccccc3C(C)C)c3cc(-c4cccc(Cl)c4)c(Cl)cc23)[C@@H](C)C1` [Compound I-17] the IC50 was over 1000 nM.

Same assay, conditions: class symbols
With `C=CC(=O)N1C[C@H](C)N(c2c(C#N)c(=O)n(-c3ccccc3C(C)C)c3cc(-c4c(C)ccc5[nH]ncc45)c(Cl)cc23)C[C@H]1C` (single isomer, unassigned) [Compound I-4-1] the IC50 was over 1000 nM. Compound `C=CC(=O)N1C[C@H](C)N(c2c(C#N)c(=O)n(-c3ccccc3C(C)C)c3cc(-c4c(C)ccc5[nH]ncc45)c(Cl)cc23)C[C@H]1C` (single isomer, unassigned) [Compound I-4-2] has an IC50 of 100 to 1000 nM. `C=CC(=O)N1CC2(CCN(c3c(C#N)c(=O)n(-c4ccccc4C(C)C)c4cc(-c5c(C)ccc6[nH]ncc56)c(Cl)cc34)CC2)C1` (single isomer, unassigned) [Compound I-5-1] was tested, and the IC50 was over 1000 nM. With `C=CC(=O)N1CC2(CCN(c3c(C#N)c(=O)n(-c4ccccc4C(C)C)c4cc(-c5c(C)ccc6[nH]ncc56)c(Cl)cc34)CC2)C1` (single isomer, unassigned) [Compound I-5-2] the IC50 was 100 to 1000 nM. `C=C(F)C(=O)N1CCN(c2c(C#N)c(=O)n(-c3ccccc3C(C)C)c3cc(-c4c(C)ccc5[nH]ncc45)c(Cl)cc23)[C@@H](C)C1` (single isomer, unassigned) [Compound I-6-1] was tested, and the IC50 was over 1000 nM. In the case of `C=C(F)C(=O)N1CCN(c2c(C#N)c(=O)n(-c3ccccc3C(C)C)c3cc(-c4c(C)ccc5[nH]ncc45)c(Cl)cc23)[C@@H](C)C1` (single isomer, unassigned) [Compound I-6-2], the IC50 is reported as under 100 nM. In the case of `C=CC(=O)N1CCN(c2c(C#N)c(=O)n(-c3ccccc3C(C)C)c3cc(-c4c(OC)ccc(Cl)c4F)c(Cl)cc23)[C@@H](C)C1` (single isomer, unassigned) [Compound I-7-1], the IC50 is reported as over 1000 nM. For `C=CC(=O)N1CCN(c2c(C#N)c(=O)n(-c3ccccc3C(C)C)c3cc(-c4c(OC)ccc(Cl)c4F)c(Cl)cc23)[C@@H](C)C1` (single isomer, unassigned) [Compound I-7-2], the IC50 was 100 to 1000 nM.

Same assay, conditions: numeric values
Work on `C=CC(=O)N1CCN(c2c(C#N)c(=O)n(-c3ccccc3C(C)C)c3cc(-c4c(C)ccc5[nH]ncc45)c(Cl)cc23)[C@H](C)C1` (single isomer, unassigned) [Compound I-3-1] yielded an IC50 of 1980 nM. Compound `C=CC(=O)N1CCN(c2c(C#N)c(=O)n(-c3ccccc3C(C)C)c3cc(-c4c(C)ccc5[nH]ncc45)c(Cl)cc23)[C@H](C)C1` (single isomer, unassigned) [Compound I-3-2] has an IC50 of 250 nM.
